Key:
Format in all cases: cell-based
MOLM-13 cells = experiment: Cell viability assay (CellTiter-Glo) in MOLM-13 cells; settings: Homo sapiens, 72 h, MOLM-13, AML, 3 days
Procedure: (§1) MV4;11, RS4;11, Kasumi-1, HEL and other cells were treated with NVP-BSK805, TG101209 or selected degraders for 3 days at indicated concentrations following a 3-fold serial dilution.
(§2) HEL, RS4;11, MV4;11, Kasumi-1 and other cells were cultured at 37° C. with 5% CO2 in RPMI 1640 or DMEM Medium supplemented with 10% fetal bovine serum. Cells were authenticated using the short tandem repeat (STR) assays. Mycoplasma test results were negative.
(§3) Cells were seeded at a density of 5000 cells per well in 96-well assay plates and treated with test compounds following a 8-point or 12-point 3-fold serial dilution. Three days later, cell viability was determined using the CellTiter-Glo assay kit according to the manufacturer's instructions. The dose-response curves were determined and IC50 values were calculated using the GraphPad Prism software following a nonlinear regression (least squares fit) method.

AMO-1 cells = experiment: Cell viability assay (CellTiter-Glo) in AMO-1 cells; settings: Homo sapiens, AMO1, 72 h, AMO-1, Multiple Myeloma, 3 days
Procedure: as §1, §2, §3

MEG-01 cells = experiment: Cell viability assay (CellTiter-Glo) in MEG-01 cells; settings: Homo sapiens, 72 h, MEG-01, CML, 3 days
Procedure: as §1, §2, §3

MOLT-4 cells = experiment: Cell viability assay (CellTiter-Glo) in MOLT-4 cells; settings: Homo sapiens, 72 h, MOLT-4, T-ALL, 3 days
Procedure: as §1, §2, §3

NCI-H929 cells = experiment: Cell viability assay (CellTiter-Glo) in NCI-H929 cells; settings: Homo sapiens, 72 h, NCI-H929, Multiple Myeloma, 3 days
Procedure: as §1, §2, §3

p-STAT3 = experiment: Immunoblot of p-STAT3 (downstream signaling) in HEL cells; settings: immunoblot (FIG. 1)
Procedure: To confirm JA-189 and JA-213 are true JAK degraders, HEL cell were treated with these two compounds at various compounds concentrations.
as §2
(§4) Rabbit anti-JAK1 antibody (3344S), anti-JAK2 antibody (3230S), anti-JAK3 antibody (8827S), anti-TYK2 antibody (14193S), anti-FLT3 antibody (3462S), anti-RET antibody (14556S), anti-phospho-STAT3 (Tyr705) antibody (9145S) and anti-phospho-STAT5 (Tyr694) antibody (4322S) were purchased from Cell Signaling Technology. Rabbit anti-GSPT1 antibody (ab126090) was purchased from Abcam. HRP-conjugated anti-α-tubulin antibody was produced in house. Media and other cell culture reagents were purchased from Thermo Fisher. The CellTiter-Glo Luminescent Assay kit was purchased from Promega.
(§5) Cultured cells were washed with cold PBS once and lysed in cold RIPA buffer supplemented with protease inhibitors and phosphatase inhibitors (Beyotime Biotechnology). […] Total protein concentrations in the lysates were determined by BCA assays (Beyotime Biotechnology). […] Protein bands were quantitated using the accompanied software provided by Bio-Rad.

Pfeiffer cells = experiment: Cell viability assay (CellTiter-Glo) in Pfeiffer cells; settings: Homo sapiens, 72 h, DLBCL, 3 days
Procedure: as §1, §2, §3

HEL cells = experiment: Cell viability assay (CellTiter-Glo) in HEL cells; settings: 3 days; for cell viability inhibition in combination with pomalidomide: pomalidomide at 10 μM (FIG. 4); for IC50: Homo sapiens, 72 h, erythroleukemia, cell viability
Procedure: as §1, §2, §3

WSU-DLCL2 cells = experiment: Cell viability assay (CellTiter-Glo) in WSU-DLCL2 cells; settings: Homo sapiens, WSUDLCL2, 72 h, WSU-DLCL2, DLBCL, 3 days
Procedure: as §1, §2, §3

JAK1 = target: T1, JAK1 (Homo sapiens, UniProt P23458); experiment: Immunoblot of JAK1 protein level in HEL cells; settings: 24 hours, immunoblot (FIG. 1)
T1 construct: immunoblot of JAK1/3 proteins expressed in RS4;11 cells; endogenous in cells; host or cells: RS4;11 cells
Procedure: HEL cells harboring JAK2-V617F mutation were treated with compounds at indicated concentrations for 24 hours. […] The concentrations required to reduce JAK2-V617 by 50% (DC50) were below 60 nM for compound JA-213.
as §2, §4, §5

Kasumi-1 cells = experiment: Cell viability assay (CellTiter-Glo) in Kasumi-1 cells; settings: for IC50: Homo sapiens, 72 h, Kasumi-1, AML, cell viability, 3 days; for cell viability inhibition in combination with pomalidomide: Kasumi-1, 3 days, pomalidomide at 10 μM (FIG. 4)
Procedure: as §1, §2, §3

T1 sequence (P23458 whole entry): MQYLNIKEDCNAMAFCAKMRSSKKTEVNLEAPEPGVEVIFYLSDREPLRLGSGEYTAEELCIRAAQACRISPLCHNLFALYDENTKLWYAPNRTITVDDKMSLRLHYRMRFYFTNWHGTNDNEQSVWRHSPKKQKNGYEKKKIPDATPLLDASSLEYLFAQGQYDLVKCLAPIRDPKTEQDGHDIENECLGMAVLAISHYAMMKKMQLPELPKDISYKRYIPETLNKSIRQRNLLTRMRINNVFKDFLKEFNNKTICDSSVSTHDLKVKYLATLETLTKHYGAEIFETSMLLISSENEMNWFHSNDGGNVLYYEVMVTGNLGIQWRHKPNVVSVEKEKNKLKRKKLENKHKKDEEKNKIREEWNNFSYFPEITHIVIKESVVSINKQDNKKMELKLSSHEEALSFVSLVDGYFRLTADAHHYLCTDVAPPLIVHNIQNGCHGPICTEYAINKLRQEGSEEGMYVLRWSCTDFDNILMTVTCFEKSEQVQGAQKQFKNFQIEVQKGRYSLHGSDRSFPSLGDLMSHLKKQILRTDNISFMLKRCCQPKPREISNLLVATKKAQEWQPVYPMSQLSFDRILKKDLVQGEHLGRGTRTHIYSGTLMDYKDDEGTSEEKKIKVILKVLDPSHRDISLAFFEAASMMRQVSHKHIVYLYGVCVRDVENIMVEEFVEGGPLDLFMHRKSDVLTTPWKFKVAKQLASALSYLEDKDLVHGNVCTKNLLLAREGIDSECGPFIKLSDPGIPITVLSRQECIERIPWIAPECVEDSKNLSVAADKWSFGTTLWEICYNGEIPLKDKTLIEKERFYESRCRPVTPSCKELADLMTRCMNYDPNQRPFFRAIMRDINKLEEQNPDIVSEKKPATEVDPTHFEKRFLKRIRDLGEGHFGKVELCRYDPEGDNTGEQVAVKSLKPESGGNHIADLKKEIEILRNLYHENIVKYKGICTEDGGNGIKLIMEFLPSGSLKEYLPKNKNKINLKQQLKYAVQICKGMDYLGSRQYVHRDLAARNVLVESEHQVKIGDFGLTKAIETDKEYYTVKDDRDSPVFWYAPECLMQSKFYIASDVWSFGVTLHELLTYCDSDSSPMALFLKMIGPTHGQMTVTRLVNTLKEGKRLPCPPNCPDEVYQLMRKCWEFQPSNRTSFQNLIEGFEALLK

SMILES | IC50 (MOLM-13 cells) [nM] | IC50 (AMO-1 cells) [nM] | IC50 (MEG-01 cells) [nM] | IC50 (MOLT-4 cells) [nM] | IC50 (NCI-H929 cells) [nM] | down stream signaling, p-STAT3 band (p-STAT3) | IC50 (Pfeiffer cells) [nM] | cell viability inhibition in combination with pomalidomide (HEL cells) | IC50 (HEL cells) [nM] | IC50 (WSU-DLCL2 cells) [nM] | JAK1 protein level (JAK1) | IC50 (Kasumi-1 cells) [nM] | cell viability inhibition in combination with pomalidomide (Kasumi-1 cells)
O=C1CCC(N2C(=O)c3ccc(NCCCCCC(=O)N4CCC(n5cc(-c6cnc7cccc(-c8cc(F)c(CN9CCOCC9)c(F)c8)c7n6)cn5)CC4)cc3C2=O)C(=O)N1 (centres unmarked) [JA-189, 5-((6-(4-(4-(8-(3,5-difluoro-4-(morpholinomethyl)phenyl)quinoxalin-2-yl)-1H-pyrazol-1-yl)piperidin-1-yl)-6-oxohexyl)amino)-2-(2,6-dioxopiperidin-3-yl)isoindoline-1,3-dione] | 20.8 | 612 | 89.2 | 6.36 | 106 | weaker bands of p-STAT3 and p-STAT5 | 320 | greatly reduce the potencies of the degraders | 177 | 106 | able to reduce JAK1, JAK2 and JAK3 protein levels | 86.3 | greatly reduce the potencies of the degraders
CS(=O)(=O)c1ccc(-c2cccc3nc(Nc4ccc(N5CCN(CC(=O)NCCCCCCCCNc6ccc7c(c6)C(=O)N(C6CCC(=O)NC6=O)C7=O)CC5)cc4)nn23)cc1 (centres unmarked) [JA-213] | 27.4 | 722 | 74 | 16.5 | 124 | weaker bands of p-STAT3 and p-STAT5 | 266 | greatly reduce the potencies of the degraders | 82.1 | 168 | able to reduce JAK1, JAK2 and JAK3 protein levels | 69.1 | greatly reduce the potencies of the degraders
